# Values of other authors, collected in US5270047A, “Local delivery of dipyridamole for the treatment of proliferative diseases” (priority 1991, dated 1993).
# “Also recorded” adds a separate entry of the source.
# Test system: vascular restenosis
# Conditions: systemic administration; patients; cited from earlier work
smiles,measurement,value
"OCCN(CCO)c1nc(N2CCCCC2)c2nc(N(CCO)CCO)nc(N3CCCCC3)c2n1 [Dipyridamole, 2,6-bis(diethanolamino)-4,8-dipiperidinopyrimido[5,4-d]pyrimidine]",effect in treating or preventing vascular restenosis,ineffective; also recorded: ineffective in treating or preventing vascular restenosis in patients
